US10758534B2 (Vertex Pharmaceuticals Incorporated, priority 2014, dated 2020)

Target: T1, F508del (Homo sapiens, UniProt P13569, DEL508-508)
T1 construct: expressed in transfected cells
Experiment: Protocol 2: FRET membrane potential optical assay (VIPR), identification of correction compounds
Format: cell-based
Conditions: Table 3; compounds of Table 1 as modulators of CFTR activity; protocol not stated
In short: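 FRET read-out (CC2-DMPE donor, DiSBAC2(3) voltage-sensitive acceptor) of membrane depolarization on VIPR II. Corrector candidates incubated 16 hrs at 37° C. with NIH3T3 cells expressing F508del; temperature correction at 27° C. as positive control; stimulation by 10 μM forskolin, 20 μM genistein, chloride-free gluconate bath.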

T1 sequence (P13569 with tags, fused parts or gaps DEL508-508): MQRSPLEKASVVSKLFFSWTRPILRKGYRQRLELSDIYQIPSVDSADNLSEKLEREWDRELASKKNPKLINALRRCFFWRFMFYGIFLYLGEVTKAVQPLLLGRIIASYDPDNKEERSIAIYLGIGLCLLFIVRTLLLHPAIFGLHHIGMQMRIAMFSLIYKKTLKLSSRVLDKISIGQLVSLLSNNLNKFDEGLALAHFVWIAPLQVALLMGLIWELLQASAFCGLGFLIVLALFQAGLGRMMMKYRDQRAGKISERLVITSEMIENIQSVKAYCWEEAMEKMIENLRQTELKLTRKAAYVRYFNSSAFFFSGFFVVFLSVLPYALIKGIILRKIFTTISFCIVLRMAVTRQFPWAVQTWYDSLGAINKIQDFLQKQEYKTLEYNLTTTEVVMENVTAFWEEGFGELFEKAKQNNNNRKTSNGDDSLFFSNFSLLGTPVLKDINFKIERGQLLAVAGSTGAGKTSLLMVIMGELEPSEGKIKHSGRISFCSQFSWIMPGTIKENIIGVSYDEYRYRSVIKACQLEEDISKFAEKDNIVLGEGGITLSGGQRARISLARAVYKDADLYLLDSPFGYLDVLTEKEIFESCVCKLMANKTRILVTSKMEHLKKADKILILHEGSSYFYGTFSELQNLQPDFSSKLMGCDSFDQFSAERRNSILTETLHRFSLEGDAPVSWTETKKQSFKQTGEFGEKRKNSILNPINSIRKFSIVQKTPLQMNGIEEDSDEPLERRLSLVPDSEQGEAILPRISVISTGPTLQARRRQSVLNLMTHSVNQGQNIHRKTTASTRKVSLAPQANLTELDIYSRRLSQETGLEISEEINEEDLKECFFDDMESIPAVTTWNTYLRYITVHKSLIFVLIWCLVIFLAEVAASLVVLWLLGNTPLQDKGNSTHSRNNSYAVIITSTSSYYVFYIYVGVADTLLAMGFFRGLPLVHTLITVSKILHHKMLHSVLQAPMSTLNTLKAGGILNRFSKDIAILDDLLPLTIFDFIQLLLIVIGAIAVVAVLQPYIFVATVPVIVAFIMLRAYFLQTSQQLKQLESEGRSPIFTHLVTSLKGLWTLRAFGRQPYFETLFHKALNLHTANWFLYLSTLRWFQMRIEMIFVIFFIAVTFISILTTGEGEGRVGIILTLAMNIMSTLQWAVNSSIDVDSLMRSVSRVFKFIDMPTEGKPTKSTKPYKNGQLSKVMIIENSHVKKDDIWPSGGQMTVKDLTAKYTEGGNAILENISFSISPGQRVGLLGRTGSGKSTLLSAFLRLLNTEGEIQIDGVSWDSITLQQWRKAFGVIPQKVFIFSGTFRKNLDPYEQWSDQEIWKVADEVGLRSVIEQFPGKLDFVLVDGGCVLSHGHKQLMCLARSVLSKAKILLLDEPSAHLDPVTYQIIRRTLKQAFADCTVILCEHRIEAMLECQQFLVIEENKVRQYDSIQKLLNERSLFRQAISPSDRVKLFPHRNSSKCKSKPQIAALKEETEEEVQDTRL

Row | EC30 | Structure (SMILES)
1 | +++ (“+++” means <3 uM) | CC(C)CCOc1cc(F)cc(-c2ccc(C(=O)NS(=O)(=O)c3ccc[nH]c3=O)c(N3[C@H](C)CC[C@@H]3C)n2)c1 [Compound 688, 2-[(2S,5R)-2,5-dimethylpyrrolidin-1-yl]-6-(3-fluoro-5-isopentyloxy-phenyl)-N-[(2-oxo-1H-pyridin-3-yl)sulfonyl]pyridine-3-carboxamide]
2 | +++ (“+++” means <3 uM) | CC1CC(C)N(c2nc(-c3ccc(OC(C)C)nc3)ccc2C(=O)NS(=O)(=O)c2cccc(N)n2)C1 (centres unmarked) [Compound 689, N-[(6-amino-2-pyridyl)sulfonyl]-2-(2,4-dimethylpyrrolidin-1-yl)-6-(6-isopropoxy-3-pyridyl)pyridine-3-carboxamide]
3 | ++ (“++” means between 3 uM and 10 uM) | Cc1cc(C)c(CN2Cc3ccccc3CCC2C(=O)NS(=O)(=O)c2cccc(N)n2)c(C)c1 (centres unmarked) [Compound 690, N-[(6-amino-2-pyridyl)sulfonyl]-2-[(2,4,6-trimethylphenyl)methyl]-1,3,4,5-tetrahydro-2-benzazepine-3-carboxamide]
4 | +++ (“+++” means <3 uM) | Cc1cc(C)c(Oc2nc(-n3cc(C(F)(F)F)cn3)ccc2C(=O)NS(=O)(=O)c2cccc(N)n2)c(C)c1 [Compound 691, N-[(6-amino-2-pyridyl)sulfonyl]-6-[4-(trifluoromethyl)pyrazol-1-yl]-2-(2,4,6-trimethylphenoxy)pyridine-3-carboxamide]
5 | +++ (“+++” means <3 uM) | CCCOc1cc(-c2ccc(C(=O)NS(=O)(=O)c3cccc(N)n3)c(N3CCC(C)CC3)n2)ccc1Cl [Compound 692, N-[(6-amino-2-pyridyl)sulfonyl]-6-(4-chloro-3-propoxy-phenyl)-2-(4-methyl-1-piperidyl)pyridine-3-carboxamide]
6 | +++ (“+++” means <3 uM) | CC1CN(c2nc(-c3ccc(C(C)C)cc3)ccc2C(=O)NS(=O)(=O)c2cccc(N)n2)C(C)(C)C1 (centres unmarked) [Compound 693, N-[(6-amino-2-pyridyl)sulfonyl]-6-(4-isopropylphenyl)-2-(2,2,4-trimethylpyrrolidin-1-yl)pyridine-3-carboxamide]
7 | +++ (“+++” means <3 uM) | Cc1cc(C)c(CN2CCCc3ccccc3C2C(=O)NS(=O)(=O)c2cccc(N)n2)c(C)c1 (centres unmarked) [Compound 696, N-[(6-amino-2-pyridyl)sulfonyl]-2-[(2,4,6-trimethylphenyl)methyl]-1,3,4,5-tetrahydro-2-benzazepine-1-carboxamide]
8 | +++ (“+++” means <3 uM) | Cc1cc(C)c(Oc2nc(-c3cccnc3OCC(F)(F)F)ccc2C(=O)NS(=O)(=O)c2cccc(N)n2)c(C)c1 [Compound 697, N-[(6-amino-2-pyridyl)sulfonyl]-6-[2-(2,2,2-trifluoroethoxy)-3-pyridyl]-2-(2,4,6-trimethylphenoxy)pyridine-3-carboxamide]
9 | +++ (“+++” means <3 uM) | CC1CCN(c2nc(-c3cc(F)cc(OC(C)C)c3)ccc2C(=O)NS(=O)(=O)c2nccnc2N)CC1 [Compound 699, N-(3-aminopyrazin-2-yl)sulfonyl-6-(3-fluoro-5-isopropoxy-phenyl)-2-(4-methyl-1-piperidyl)pyridine-3-carboxamide]
10 | +++ (“+++” means <3 uM) | COc1ccc(F)cc1-c1ccc(C(=O)NS(=O)(=O)c2cccc(N)n2)c(Oc2c(C)cc(C)cc2C)n1 [Compound 700, N-[(6-amino-2-pyridyl)sulfonyl]-6-(5-fluoro-2-methoxy-phenyl)-2-(2,4,6-trimethylphenoxy)pyridine-3-carboxamide]
11 | +++ (“+++” means <3 uM) | CC(C)Oc1cc(-c2ccc(C(=O)NS(=O)(=O)c3ccn[nH]3)c(N3[C@H](C)CC[C@@H]3C)n2)ccc1Cl [Compound 701, 6-(4-chloro-3-isopropoxy-phenyl)-2-[(2S,5R)-2,5-dimethylpyrrolidin-1-yl]-N-(1H-pyrazol-5-ylsulfonyl)pyridine-3-carboxamide]
12 | ++ (“++” means between 3 uM and 10 uM) | Cc1ccc(-c2nc(C(C)(C)C)ccc2C(=O)NS(=O)(=O)c2ccc(N)nc2)cc1 [Compound 702, N-[(6-amino-3-pyridyl)sulfonyl]-6-tert-butyl-2-(p-tolyl)pyridine-3-carboxamide]
13 | +++ (“+++” means <3 uM) | CC(C)Oc1ccc(-c2ccc(C(=O)NS(=O)(=O)c3cccc(N)n3)c(N3CCCC4(CC4)C3)n2)cn1 [Compound 703, N-[(6-amino-2-pyridyl)sulfonyl]-2-(7-azaspiro[2.5]octan-7-yl)-6-(6-isopropoxy-3-pyridyl)pyridine-3-carboxamide]
14 | ++ (“++” means between 3 uM and 10 uM) | C[C@@H]1CC[C@H](C)N1c1nc(C2CCCCC2)ccc1C(=O)NS(=O)(=O)c1cccc(N)n1 [Compound 704, N-[(6-amino-2-pyridyl)sulfonyl]-6-cyclohexyl-2-[(2S,5R)-2,5-dimethylpyrrolidin-1-yl]pyridine-3-carboxamide]
15 | +++ (“+++” means <3 uM) | COc1ncc(-c2ccc(C(=O)NS(=O)(=O)c3cccc(N)n3)c(Oc3c(C)cc(C)cc3C)n2)cc1C [Compound 705, N-[(6-amino-2-pyridyl)sulfonyl]-6-(6-methoxy-5-methyl-3-pyridyl)-2-(2,4,6-trimethylphenoxy)pyridine-3-carboxamide]
16 | + (“+” means greater than 10 uM) | Cc1ccc(-c2nc3c(cc2C(=O)NS(=O)(=O)c2nccnc2N)CCCC3(C)C)cc1 [Compound 707, N-(3-aminopyrazin-2-yl)sulfonyl-8,8-dimethyl-2-(p-tolyl)-6,7-dihydro-5H-quinoline-3-carboxamide]
17 | +++ (“+++” means <3 uM) | CC1CN(c2nc(-c3cccc(OC(C)C)n3)ccc2C(=O)NS(=O)(=O)c2cccc(N)n2)C(C)(C)C1 (centres unmarked) [Compound 708, N-[(6-amino-2-pyridyl)sulfonyl]-6-(6-isopropoxy-2-pyridyl)-2-(2,2,4-trimethylpyrrolidin-1-yl)pyridine-3-carboxamide]
18 | +++ (“+++” means <3 uM) | Cc1cc(C)c(Oc2nc(-c3cccc(C(F)(F)F)c3)ccc2C(=O)NS(=O)(=O)c2cccc(N)n2)c(C)c1 [Compound 709, N-[(6-amino-2-pyridyl)sulfonyl]-6-[13-(trifluoromethyl)phenyl]-2-(2,4,6-trimethylphenoxy)pyridine-3-carboxamide]
19 | +++ (“+++” means <3 uM) | CC1CN(c2nc(-c3ccc(F)cc3)ccc2C(=O)NS(=O)(=O)c2cccc(N)n2)C(C)(C)C1 (centres unmarked) [Compound 712, N-[(6-amino-2-pyridyl)sulfonyl]-6-(4-fluorophenyl)-2-(2,2,4-trimethylpyrrolidin-1-yl)pyridine-3-carboxamide]
20 | ++ (“++” means between 3 uM and 10 uM) | Cc1ccc(Oc2nc(-c3cnn(CC(C)C)c3)ccc2C(=O)NS(=O)(=O)c2nccnc2N)c(C)c1 [Compound 713, N-(3-aminopyrazin-2-yl)sulfonyl-2-(2,4-dimethylphenoxy)-6-(1-isobutylpyrazol-4-yl)pyridine-3-carboxamide]
21 | +++ (“+++” means <3 uM) | Cc1cc(C)c(Oc2nc3c(cc2C(=O)NS(=O)(=O)c2cccc(N)n2)COCC3(C)C)c(C)c1 [Compound 714, N-[(6-amino-2-pyridyl)sulfonyl]-8,8-dimethyl-2-(2,4,6-trimethylphenoxy)-5,7-dihydropyrano[4,3-b]pyridine-3-carboxamide]
22 | +++ (“+++” means <3 uM) | CC(C)C(C)Oc1cccc(-c2ccc(C(=O)NS(=O)(=O)c3cccc(N)n3)c(N3CCCC3(C)C)n2)n1 (centres unmarked) [Compound 717, N-[(6-amino-2-pyridyl)sulfonyl]-6-[6-(1,2-dimethylpropoxy)-2-pyridyl]-2-(2,2-dimethylpyrrolidin-1-yl)pyridine-3-carboxamide]
23 | +++ (“+++” means <3 uM) | CCOc1ncccc1-c1ccc(C(=O)NS(=O)(=O)c2cccc(N)n2)c(Oc2c(C)cc(C)cc2C)n1 [Compound 718, N-[(6-amino-2-pyridyl)sulfonyl]-6-(2-ethoxy-3-pyridyl)-2-(2,4,6-trimethylphenoxy)pyridine-3-carboxamide]

Row | Structure (SMILES) | EC30
24 | CC(C)COc1cc(F)cc(-c2ccc(C(=O)NS(=O)(=O)c3cccc(N)n3)c(N3CCC[C@H]3C)n2)c1 [Compound 694, N-[(6-amino-2-pyridyl)sulfonyl]-6-(3-fluoro-5-isobutoxy-phenyl)-2-[(2R)-2-methylpyrrolidin-1-yl]pyridine-3-carboxamide] | +++ (“+++” means <3 uM)
25 | CC(C)COc1cccc(-c2ccc(C(=O)NS(=O)(=O)c3cccc(N)n3)c(N3CC(C)CC3(C)C)n2)c1 (centres unmarked) [Compound 695, N-[(6-amino-2-pyridyl)sulfonyl]-6-(3-isobutoxyphenyl)-2-(2,2,4-trimethylpyrrolidin-1-yl)pyridine-3-carboxamide] | +++ (“+++” means <3 uM)
26 | CC(C)COc1cc(F)cc(-c2ccc(C(=O)NS(=O)(=O)c3cccc(N)n3)c(OC3CCCOC3)n2)c1 (centres unmarked) [Compound 706, N-[(6-amino-2-pyridyl)sulfonyl]-6-(3-fluoro-5-isobutoxy-phenyl)-2-tetrahydropyran-3-yloxy-pyridine-3-carboxamide] | +++ (“+++” means <3 uM)
27 | CC(C)COc1cccc(-c2ccc(C(=O)NS(=O)(=O)c3ccn[nH]3)c(N3[C@H](C)CC[C@@H]3C)n2)c1 [Compound 710, 2-[(2S,5R)-2,5-dimethylpyrrolidin-1-yl]-6-(3-isobutoxyphenyl)-N-(1H-pyrazol-5-ylsulfonyl)pyridine-3-carboxamide] | +++ (“+++” means <3 uM)
28 | CC(C)COc1cc(F)cc(-c2ccc(C(=O)NS(=O)(=O)c3cccc(N)n3)c(N3C(C)CC(c4ccccc4)C3C)n2)c1 (centres unmarked) [Compound 711, N-[(6-amino-2-pyridyl)sulfonyl]-2-(2,5-dimethyl-3-phenyl-pyrrolidin-1-yl)-6-(3-fluoro-5-isobutoxy-phenyl)pyridine-3-carboxamide] | +++ (“+++” means <3 uM)
29 | CC(C)COc1cc(F)cc(-c2ccc(C(=O)NS(=O)(=O)c3ccn[nH]3)c(N3CCC[C@H]3c3ccccc3)n2)c1 [Compound 716, 6-(3-fluoro-5-isobutoxy-phenyl)-2-[(2S)-2-phenylpyrrolidin-1-yl]-N-(1H-pyrazol-5-ylsulfonyl)pyridine-3-carboxamide] | +++ (“+++” means <3 uM)
